The results in this text go back to patent US8653071B2, “α4β2 neuronal nicotinic acetylcholine receptor ligands” (Suven Life Sciences Limited, priority 2009, dated 2014).

For data set [1], the target named is Nicotinic Acetylcholine α4β2 Receptor (UniProt P09483+P12390). The data set can be described thus: Binding assay for human or rat nicotinic acetylcholine α4β2 receptor ([3H]Cytisine displacement). The conditions noted are these: [3H]Cytisine 2.5 nM, rat brain frontal cortex or recombinant human receptor in CHO cells (not specified which). Here is the method:
Binding Assay for Human or Rat Nicotinic Acetylcholine α4β2 Receptor
• Receptor source: Rat brain frontal cortex or recombinant human cDNA expressed in CHO cells • Radioligand: [^3H]Cytisine 15-40 Ci/mmole • Final ligand concentration—[2.5 nM] • Non-specific determinant: Epibatidine—[0.1 μM] • Reference compound: Epibatidine • Positive control: Epibatidine Incubation Conditions:
Increasing concentrations of test compounds or standard were incubated with membrane receptors and radioligand in 120 mM NaCl, 2.5 mM KCl, 1 mM CaCl2, 1 mM MgCl2 and 50 mM TRIS-HCl (pH 7.4) for 60 minutes at room temperature. The reaction was terminated by rapid vacuum filtration onto the glass fiber filters. Radioactivity trapped onto the filters was determined and compared to the control values in order to ascertain any interactions of the test compound(s) with either cloned human or rat receptor binding site.
Literature Reference: Bunnelle W. H., Daanen J. F., Ryther K. B., Schrimpf M. R., Dart M. J., Gelain A., Meyer M. D., Frost J. M., Anderson D. J., Buckley M., Curzon P., Cao Y-J., Puttfarcken P., Searle X., Ji J., Putman C. B., Surowy C., Toma L. and Barlocco D. Structure-Activity Studies and Analgesic Efficacy of N-(3-Pyridinyl)-Bridged Bicyclic Diamines, Exceptionally Potent Agonists at Nicotinic Acetylcholine Receptors. J. Med. Chem. 2007, 50, […].

Data set [2] concerns the target T1, recombinant human α4β2 nicotinic acetylcholine receptor (Homo sapiens, UniProt P17787+P43681).
T1 construct: expressed in transfected cells
Description: Determination of IC50 and Kb values, aequorin luminescence (intracellular calcium) assay in CHO cells. It counts as cell-based. The conditions noted are these: antagonist mode vs epibatidine. The procedure: Determination of IC50 and Kb Values for Nicotinic Acetylcholine α4β2 Receptor Ligands
A stable CHO cell line expressing recombinant human α4β2 nicotinic acetylcholine receptor transiently expressing aequorin protein was used for cell-based assay. The assay offers a non-radioactive based approach to determine binding of a compound to ligand gated ion channels. In this specific assay, the level of intracellular calcium, which is modulated by activation or inhibition of the channel is measured. Both the channel and aequorin genes are expressed at high level under the control of powerful CMV promotor.
The above cells were grown in 96 well clear bottom white plates in Hams F12 medium containing 10% fetal bovine serum (FBS). Prior to the addition of compounds and/or agonist, cells were serum starved for six hours. Coelentarazine (a prosthetic group for aequorin protein) was added in the medium containing 0.1% dialyzed serum and incubated overnight at 27° C. Cells were washed with assay buffer and increasing concentration of the test compound or standard were added to the plate for antagonist mode. A fixed concentration of the agonist (eipbatidine) was injected into the plate and luminescence was measured for 10 seconds. For evaluation of the compound in agonist mode, increasing concentration of the standard or test compound were injected and the luminescence was measured. Luminescence units were plotted against the compound concentrations using Graphpad software. IC50 values of the compounds were defined as the concentration required in reducing the luminescent units by 50%. The Kb values were calculated by feeding the concentration of the agonist used in the assay and its EC50 value in the same software.
Literature References: Karadsheh M. S., Shah M. S., Tang X., Macdonald R. L. and Stitzel J. A. Functional characterization of mouse α4β2 nicotinic acetylcholine receptors stably expressed in HEK293T cells. J. Neurochem. 2004, 91, 1138-1150.

The nature of data set [3]: Rodent pharmacokinetic study. It counts as in vivo. The conditions noted are these: Wistar, Wister rat/Male. Here is the method:
Rodent Pharmacokinetic Study
Three to five animals were housed in each cage. Animals were kept fasted over night and maintained on a 12 hours light/dark cycle. Three rats were dosed NCE orally (15 or 5 mg/kg) and intravenously (5 mg/kg) on day 0 and day 2
At each time point blood was collected by jugular vein. Plasma was stored frozen at −20° C. until analysis. The concentrations of the NCE compound in plasma were determined using LC-MS/MS method. Schedule time points: Pre dose 0.25, 0.5, 1, 1.5, 2, 3, 4, 6, 8, 10, 12 and 24 hours after dosing (n=3).
Pharmacokinetic parameters Cmax, Tmax, AUCt, T1/2 and Bioavailability were calculated by non-compartmental model using software WinNonlin version 5.0.1.

A short description of data set [4]: Rodent brain penetration study. The following applies: male, Wistar, rat, brain homogenate and plasma, po, 5 mg/kg.
Description: Rodent Brain Penetration Study
(§1) Three animals were housed in each cage. Animals were given water and food ad libitum throughout the experiment, and maintained on a 12 hours light/dark cycle.
(§2) NCE compound was dissolved in water and administered orally. At Tmax (0.5, 1.0 and 2.0) animals were sacrificed to collect the plasma and brain tissue and were homogenized. Plasma and Brain was stored frozen at −20° C. until analysis. The concentrations of the NCE compound in plasma and Brain were determined using LC-MS/MS method.
(§3) The NCE compounds were quantified in plasma and brain homogenate by validated LC-MS/MS method using solid phase extraction technique. NCE compounds were quantified in the calibration range of 1-500 ng/mL in plasma and brain homogenate. Study samples were analyzed using calibration samples in the batch and quality control samples spread across the batch. Extents of brain-blood ratio were calculated (Cb/Cp).
The next data set in a line: in vivo. The following applies: male, Wistar, rat, po, 15 mg/kg.
In a further data set the test system is Male Wister rats. Description: Acute food intake study (animal model of hyperphagia). It counts as in vivo, rat. The following applies: oral. Here is the method: The appetite suppressing properties of compounds of this invention were studied using an animal model of hyperphagia.
Male Wister rats (200-210 grams) obtained from Raj Biotech, India were used as experimental animals. The experiment consisted of 6 days. The rats were adapted to the 18 hour fasting and 6 hour feeding pattern. The animals were housed in a group of three in the cages provided with the fasting grills and were fasted for 18 hours. After 18 hour fasting the rats were separated and placed individually in a cage. Weighed amount of feed was provided to rats for 6 hour and the feed intake at 1, 2, 4 and 6 hours was recorded. Again the rats were regrouped and fasted for 18 hour. The above procedure was followed for 5 days. The average cumulative food intake by the rats on the last 3 days was calculated. Animals were randomised on the basis of their last three days food intake.
One group of 8 rats received vehicle (2 mL/Kg) orally and another set of animals received compound of the formula (I) orally. Then the rats were given access to food and the food intake at 1, 2, 4 and 6 hours was recorded. The food intake by the rats treated with test compound was compared with the vehicle treated group by using students‘t’ test.

[5] abbreviates: plasma, 5 mg/kg Per-Oral vs 5 mg/kg Intravenous.

Structures can show the parent of a compound that is named as a salt. Where two headings read alike, the source gives them in different places.

T1 sequence (P43681 29-627 limits assumed): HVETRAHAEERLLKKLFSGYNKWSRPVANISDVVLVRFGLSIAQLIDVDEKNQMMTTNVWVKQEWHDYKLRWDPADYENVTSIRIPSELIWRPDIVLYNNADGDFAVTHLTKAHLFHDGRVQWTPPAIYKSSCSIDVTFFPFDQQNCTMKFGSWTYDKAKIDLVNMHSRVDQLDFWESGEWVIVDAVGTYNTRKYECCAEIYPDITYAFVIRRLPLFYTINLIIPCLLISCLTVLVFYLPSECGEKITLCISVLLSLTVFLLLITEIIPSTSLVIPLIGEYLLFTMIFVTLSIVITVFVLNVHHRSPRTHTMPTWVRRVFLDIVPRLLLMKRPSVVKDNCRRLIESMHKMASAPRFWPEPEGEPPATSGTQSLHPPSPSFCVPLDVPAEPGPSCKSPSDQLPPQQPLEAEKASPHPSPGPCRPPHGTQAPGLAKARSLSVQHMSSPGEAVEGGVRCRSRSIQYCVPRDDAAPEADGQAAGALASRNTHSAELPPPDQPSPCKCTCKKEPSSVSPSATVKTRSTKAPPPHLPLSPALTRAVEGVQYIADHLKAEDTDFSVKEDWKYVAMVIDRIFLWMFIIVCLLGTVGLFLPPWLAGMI
T1 sequence (P17787 26-502): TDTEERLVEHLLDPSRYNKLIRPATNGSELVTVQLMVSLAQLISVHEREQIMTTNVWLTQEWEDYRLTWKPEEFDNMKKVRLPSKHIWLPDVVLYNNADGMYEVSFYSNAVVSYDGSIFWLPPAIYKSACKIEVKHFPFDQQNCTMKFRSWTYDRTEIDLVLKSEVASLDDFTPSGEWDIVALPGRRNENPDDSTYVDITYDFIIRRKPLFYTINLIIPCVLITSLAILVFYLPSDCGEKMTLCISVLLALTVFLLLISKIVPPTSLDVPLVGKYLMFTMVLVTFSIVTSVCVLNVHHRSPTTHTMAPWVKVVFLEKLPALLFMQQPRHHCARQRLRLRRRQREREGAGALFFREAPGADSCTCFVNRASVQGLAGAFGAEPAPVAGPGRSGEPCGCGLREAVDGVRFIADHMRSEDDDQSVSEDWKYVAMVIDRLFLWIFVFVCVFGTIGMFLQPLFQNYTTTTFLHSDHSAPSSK
Description for in vivo: Rodent Brain Penetration Study
as §1, §2, §3

As usually defined, the Ki is a measure of affinity in units of concentration, obtained from inhibition or displacement. The Kb is the equilibrium dissociation constant of an antagonist, usually derived from a functional assay. Take `Brc1cncc(N2C(CN3CCNCC3)CC3CC32)c1` (centres unmarked) [Example 8, 2-(5-Bromopyridin-3-yl)-3-(piperazin-1-ylmethyl)-2-azabicyclo[3.1.0]hexane]: the Ki in data set [1] (read-out: Ki) was determined as 610 nM. In addition, the Kb in data set [2] (Kb) came to 4.6 nM.

Usually AUC(0-t) stands for the area under the concentration-time curve up to a stated or last time point. For orientation: Cmax means the peak of the concentration-time curve. The Tmax is the time from dosing to the highest level. The term half-life denotes how long it takes for the measured level to halve. High values mean slow decline, low ones rapid decline. Turning to `CNCC1CC2CC2N1c1ccc(C(F)(F)F)nc1.O=C(O)/C=C/C(=O)O` (centres unmarked) [Example 23, N-(2-(2-trifluoromethylpyridin-5-yl)-2-azabicyclo[3.1.0]hex-3-ylmethyl) methyl amine fumarate], in data set [1] (read-out: Ki), the inhibitory constant (Ki) amounted to 2 nM. In data set [3] (setting [5]), the bioavailability is 67 ± 9%. In addition, in data set [3] (plasma, 5 mg/kg, Intravenous), the area under the curve AUC(0-t) amounted to 18000 ± 3300 ng·h/mL, the highest level (Cmax) was 3640 ± 89 ng/mL, the time of peak concentration (Tmax) was found to be 4.8 min and the half-life was 415 ± 145 min. Moreover, in data set [3] (plasma, 5 mg/kg, Per-Oral), the AUC(0-t) amounted to 12000 ± 1740 ng·h/mL, the Cmax stood at 2310 ± 163 ng/mL, the Tmax worked out at 19.8 ± 8.4 min and the half-life is 307 ± 11.4 min. In data set [4], this compound came in with a Kp of 1.97 ± 0.08.

As for `CN(C)CC1CC2CC2N1c1cncc(Br)c1.Cl` (centres unmarked) [Example 1, N-[2-(5-Bromopyridin-3-yl)-2-azabicyclo[3.1.0]hex-3-ylmethyl]-dimethylamine hydrochloride], in data set [1] (read-out: Ki), the inhibitory constant (Ki) came out at 23 nM. In addition, the Kb in data set [2] (read-out: Kb) was found to be 1.4 nM. For the same compound, in data set [3] (plasma, 5 mg/kg, Intravenous), the exposure AUC(0-t) came to 901 ± 47 ng·h/mL, the peak level (Cmax) was 1940 ± 260 ng/mL, the Tmax was 8.4 ± 6 min and the half-life was 59.4 ± 15 min. Further, in data set [3] (plasma, 15 mg/kg Per-Oral vs 5 mg/kg Intravenous), the bioavailability is 10 ± 5%. In data set [3] (plasma, 15 mg/kg, Per-Oral), the AUC(0-t) was 273 ± 160 ng·h/mL, the highest concentration (Cmax) came to 219 ± 120 ng/mL, the Tmax worked out at 15 min and the half-life was 34.8 ± 7.8 min.

Consider `CNCC1CC2CC2N1c1cncc(Br)c1` (centres unmarked) [Example 11, N-[2-(5-Bromopyridin-3-yl)-2-azabicyclo[3.1.0]hex-3-ylmethyl]methylamine], for which the Ki in data set [1] (read-out: Ki) is 46.4 nM. Moreover, in data set [3] (in vivo, 5 mg/kg, Intravenous), the AUC(0-t) came out at 2540 ± 1300 ng·h/mL, the Cmax was determined as 1440 ± 330 ng/mL, the Tmax came out at 4.8 min and the half-life was 87 ± 31.8 min. For the same compound, in data set [3] (in vivo, 15 mg/kg Per-Oral vs 5 mg/kg Intravenous), the bioavailability was 59 ± 31%. In data set [3] (in vivo, 15 mg/kg, Per-Oral), the AUC(0-t) was 3880 ± 846 ng·h/mL, the Cmax was determined as 1990 ± 435 ng/mL, the Tmax amounted to 18.6 ± 7.8 min and the half-life was 115 ± 72 min. The compound also registered a Kp in “in vivo” of 8.75 ± 1.59.

`CN(C)CC1CC2CC2N1c1cccnc1` (centres unmarked) [Example 10, N-[2-(Pyridin-3-yl)-2-azabicyclo[3.1.0]hex-3-ylmethyl]dimethylamine]: the inhibition constant Ki in data set [1] (read-out: Ki) was 77 nM. Also, the Kb in data set [2] (read-out: Kb) was 3.4 nM.

As for `Brc1cncc(N2C(CN3CCNCC3)CC3CC32)c1` (centres unmarked) [Example 9, 2-(5-Bromopyridin-3-yl)-3-(piperazin-1-ylmethyl)-2-aza-bicyclo[3.1.0]hexane], in data set [2] (Kb), the Kb amounted to 73.1 nM.

With `NCC1CC2CC2N1c1cccnc1` (centres unmarked) [Example 18, [2-(Pyridin-3-yl)-2-azabicyclo[3.1.0]hex-3-yl] methylamine fumarate], in data set [1], the inhibition constant Ki was determined as 6.4 nM. In data set [3] (in vivo, 5 mg/kg Per-Oral vs 5 mg/kg Intravenous), the bioavailability worked out at 87 ± 24%. Besides, in data set [3] (in vivo, 5 mg/kg, Intravenous), the exposure AUC(0-t) was determined as 1760 ± 228 ng·h/mL, the concentration peaked (Cmax) at 701 ± 213 ng/mL, the Tmax amounted to 22.8 ± 8.4 min and the half-life is 85.8 ± 6.6 min. In addition, in data set [3] (in vivo, 5 mg/kg, Per-Oral), the AUC(0-t) was found to be 1540 ± 165 ng·h/mL, the maximum concentration (Cmax) was found to be 355 ± 53 ng/mL, the Tmax was determined as 4.8 min and the half-life was 105 ± 24 min. Also, the Inference entry with Male Wister rats was “Active”. Also, in the data set on Male Wister rats (1 Hour, 18 hour fasted rats), the “% Suppression of food intake compared to vehicle, 1 Hour” value is recorded as 36.80%. The “% Suppression of food intake compared to vehicle, 2 Hour” value in the data set with Male Wister rats (2 Hour, 18 hour fasted rats) was found to be 33.05%. For the same compound, in the data set on Male Wister rats (4 Hour, 18 hour fasted rats), the “% Suppression of food intake compared to vehicle, 4 Hour” value is given as 30.02%. For the same compound, the “% Suppression of food intake compared to vehicle, 6 Hour” value with Male Wister rats (6 Hour, 18 hour fasted rats) is 25.38%. For the same compound, the Kp in data set [4] came out at 3.52 ± 0.13.

Consider `CNCC1CC2CC2N1c1cncnc1.O=C(O)/C=C/C(=O)O` (centres unmarked) [Example 21, N-(2-(pyrimidin-5-yl)-2-azabicyclo[3.1.0]hex-3-ylmethyl)methyl amine fumarate], for which the Ki in data set [1] (read-out: Ki) turned out to be 465 nM. The bioavailability in data set [3] (setting [5]) amounted to 101 ± 20%. In data set [3] (plasma, 5 mg/kg, Intravenous), the AUC(0-t) is 2030 ± 525 ng·h/mL, the peak concentration (Cmax) came out at 1570 ± 261 ng/mL, the time of peak concentration (Tmax) stood at 4.8 min and the half-life was 85.8 ± 10.8 min. In data set [3] (plasma, 5 mg/kg, Per-Oral), the exposure AUC(0-t) turned out to be 1970 ± 100 ng·h/mL, the highest level (Cmax) was 685 ± 107 ng/mL, the time to peak (Tmax) is 37.8 ± 15 min and the half-life is 78 ± 22.2 min. Besides, the Kp in data set [4] was 1.74 ± 0.27.
